We go through four compounds from US11892401B2, “Boronic acid appended naphthyl-pyridinium fluorescent saccharide sensors for early detection of gastrointestinal diseases” (The Board of Trustees of the Leland Stanford Junior …, priority 2018, dated 2024).

The nature of data set [1]: Stern-Volmer quenching of TSPP anionic reporter dye. The note with it: 4 μM TSPP, 0.1 M sodium phosphate buffer pH 7.4, sphere of action quenching model. The data set is classed as binding. As for the experimental part: (§1) Stern-Volmer quenching of HPTS and TSPP anionic reporter dyes: Stock solutions of exemplary boronic acid compounds (1, 3, and 4) were initially prepared in DMS (1 mg/mL) and then diluted in 0.1 M sodium phosphate buffer pH 7.4 to obtain the desired initial 2-fold concentration. Fluorescence measurements were conducted in a 96-well plate (Corning #3694) and to each well were added 20 μL of each exemplary compound and 8 μM of HPTS or TSPP in triplicate. Initial fluorescence wells contained 20 μL of each reporter dye and 20 μL of buffer. Blank wells received 40 μL of buffer only. Measurements were performed using a Tecan infinite M1000 instrument a plate reader (gain 100, flashes 30, z-position 1.8 cm) Plates were shaken for 30 seconds (2 mm orbital amplitude) prior to reading. After blank subtraction, fluorescence intensity relative to initial total fluorescence of HPTS or TSPP (Fo/F) for each sample was calculated.
(§2) Given the cationic character of the subject receptor compounds, their ability to form a non-fluorescent ground state complex with anionic reporter dyes, such as HPTS and TSPP was investigated. The fluorescence quenching of each dye can be quantitatively monitored by Stern-Volmer analysis (Albrecht, C., Anal. Bioanal. Chem. 2008, 390 (5), 1223-1224). Two types of quenching can exist, static quenching, due to complex formation, and dynamic quenching, due to collisional encounters between the dye and quencher. Based on previous work with bis-boronic acid appended viologens (BBV) and their ability to quench HPTS (Cordes, D. B.; Gamsey, S.; Sharrett, Z.; Miller, A.; Thoniyot, P.; Wessling, R. A.; Singaram, B., Langmuir 2005, 21 (14), 6540-6547), a similar quenching mechanism was envisaged for each anionic reporter dye, through static quenching. The effects of adjusting the quencher to dye ratio for HPTS and TSPP with each of compounds 1, 3, and 4 while monitoring the decrease of fluorescence for each dye are shown in FIG. 5, panel A (HPTS) and FIG. 5, panel B (TSPP).
(§3) With each of compounds 1, 3 and 4 only having two cationic groups, it was anticipated anticipated that higher (>400 μM) amounts of each quencher would be required to achieve at least 80% of quenched fluorescence. […] Using the fluorescence data, the quenching efficiency can be determined using the available Stern-Volmer fitting models. The best fit to the Stern-Volmer plots for the exemplary compounds was obtained using the sphere of action quenching model (Eq. 2) (Frank, J. M.; Vavilov, S. I., Z. Phys. 1931, 69, 100-10).
(§4) [formula] Where V is the dynamic quenching constant, Ks is the static quenching constant, [Q] is the concentration of the quencher, and […] is derived from the Poisson distribution. There was higher contribution from the static quenching given the higher static quenching constants compared to the dynamic constants (Table 1).

Data set [2] can be described thus: Absorption measurements with increasing lactulose. The data set is classed as physicochemical. The settings on record: 0.1 M sodium phosphate buffer pH 7.4; 100 μM (1, 2), 50 μM (3, 4). On the procedure:
Absorption measurements of exemplary boronic acid receptor compounds: All absorption measurements were carried out using an Agilent Technologies Cary 60 Vis instrument in a quartz cuvette (1 cm pathlength). Stock solutions (1 mg/mL) of each compound was initially prepared in DMSO and then diluted to the desired concentration in 0.1 M sodium phosphate buffer pH 7.4 which gave minimal DMSO amount of at least 15%. Concentrations for each boronic acid receptor in cuvette are as follows; (1)=100 μM, (2)=100 μM, (3)=50 μM, and (4)=50 µM. Measurements were done in situ by taking the absorbance of each receptor compound in phosphate buffer pH 7.4, then aliquots of buffered 1 M lactulose (0.5-7 μL) was added, shaken for 30 seconds, and the new absorbance was recorded. With reference to FIG. 3, panels A to D, change of absorbance for each receptor compound was monitored as a function of increasing lactulose. […] Each compound provided absorbance maxima between 300-350 nm and with isosbestic points between 330-350 nm for all four receptors. Additionally, the compounds provided molar extinction coefficients of 1.17×10^4 (100 μM), 1.10×10^4 (100 μM), 2.77×10^4 (50 μM), and 5.01×10^4 (50 μM) M^−1 cm^−1 for 1-4 respectively. Without being bound to any particular theory, these absorption changes upon sugar binding at physiological pH for compounds 1-4 is indicative of a possible charge transfer process.

A short description of data set [3]: Fluorescence recovery of HPTS-receptor probes with 20 sugars. The note with it: 4 μM HPTS, optimal Q:D ratio, pH 7.4, 20 sugars. On the procedure:
Fluorescence recovery of each anionic reporter dyes: Fluorescence recovery measurements for sugar binding studies were conducted by preparing 96-well plates with the addition of 20 μL of the boronic acid receptor-fluorophore (HPTS or TSPP) probe solution as 2-fold concentrate (for example, 160 μM for (1) & 8 μM HPTS or 800 μM for (1) & 8 μM for TSPP) in 0.1 M sodium phosphate buffer pH 7.4. At the time of running the assay, each well received 20 μL of sample in triplicate. Blank wells were given 40 μL buffer with neither HPTS nor boronic acid receptor compound. Baseline fluorescence wells contained 20 μL of buffer and 20 μL of probe solution. Fluorescence recovery of HPTS was measured on the plate reader. After blank subtraction, fluorescence intensity relative to initial quenched HPTS (F/Fo) for each sample was calculated. Under these conditions, Fo is a non-zero value after background subtraction with about 20% of maximum fluorescence intensity. […]
Each exemplary boronic acid appended naphthyl-pyridinium quencher-dye combination provided unique fluorescent recovery characteristics across all 20 sugars and sugar derivatives analyzed. […]

Data set [4] in a line: Stern-Volmer quenching of HPTS anionic reporter dye. The note with it: 4 μM HPTS, 0.1 M sodium phosphate buffer pH 7.4, sphere of action quenching model. In kind it is binding. As for the experimental part: as §1, §2, §3, §4
Data set [5] is described as follows: Fluorescence emission of receptor compounds with increasing lactulose. The settings on record: phosphate buffer pH 7.4; for emission maxima: receptor 500 μM; for fluorescence intensity change on initial introduction of lactulose: lactulose 0.5 mM. On the procedure: Fluorescence Measurements of exemplary boronic acid receptor compounds: Stock solutions of each boronic acid receptor compound (1-4) were initially prepared in DMS (1 mg/mL) and then diluted to desired initial 1 mM concentration before adding to the wells. Each lactulose concentration points were prepared in 0.1 M sodium phosphate buffer as 2-fold of the desired final concentration in each well. Each well received 20 μL of each receptor compound and sugar concentration (each data point recorded in triplicates) and the fluorescence measurements were conducted in a 96-well plate (Corning #3694) using a Tecan infinite M1000 instrument a plate reader (gain 100, flashes 30, z-position 1.8 cm) Plates were shaken for 30 seconds (2 mm orbital amplitude) prior to reading.
With reference to FIG. 4, panels A to D, the effect of lactulose on the fluorescent properties of each receptor compound (1-4) was examined in phosphate buffer pH 7.4. Receptor compounds (1) and (2) observed similar emission profiles with emission maxima at 504 and 490 nm, meanwhile the emission maxima for (3) and (4) was 50 nm less which peaked at 440 nm. […] These types of fluorescent changes have been previously observed by Norrild where a pyridinium moiety is directly conjugated to an anthracene core (Eggert, H.; Frederiksen, J.; Morin, C.; Norrild, J. C., Journal of Organic Chemistry 1999, 64 (11), 3846-3852). Without being bound to any particular theory, it was hypothesized that the pyridinium unit in the subject receptor compounds may act as an electron sink for the singlet electron diminishing the fluorescence intensity. Upon boronic acid-sugar recognition and subsequently conversion of the hybridization of the boron atom from sp^2 to anionic sp^3 generating a zwitterion induces an internal charge transfer (ICT)-like mechanism increasing the fluorescence intensity.

Data set [6] can be described thus: pH profile / pKa by fluorescence spectroscopy. In kind it is physicochemical. The note with it: receptor 500 μM (2) or 250 μM (3, 4), fluorescence titration pH 3-10. As for the experimental part: Titration curves with pH were determined using the following buffer solutions, pH 3-4 acetate buffer; pH 5-8.5 phosphate buffer; and pH 9-10 carbonate buffer. Fluorescence intensity was monitored in the absence or presence of 30 mM lactulose for exemplary receptor compounds, e.g., 2, 500 μM; 3, 250 μM; and (4, 205 µM in the indicated buffer conditions. Stock solutions of each boronic acid receptor compound (2, 3, and 4) were initially prepared in DMS (1 mg/mL) and then diluted in appropriate buffer conditions to obtain the desired initial 2-fold concentration. Fluorescence measurements were conducted in a 96-well plate (Corning #3694) and to each well 30 μL of each receptor compound and buffer media with or without lactulose were added in triplicate. Blank wells received 60 μL of buffer only. Measurements were performed using a Tecan Infinite M1000 instrument, a plate reader (gain 100, flashes 30, z-position 1.8 cm) Plates were shaken for 30 seconds (2 mm orbital amplitude) prior to reading. After blank subtraction, fluorescence intensity relative to initial total fluorescence (at pH 3).
Each pH-profile was fitted with equation S1, where y=normalized intensity, ymax=maximum normalized intensity, ymin=minimum normalized intensity, x=pH value, k=acid dissociation constant and pka values were obtained from this constant (pka=−log k).
Titration curves fitted to equation S1.

The mark [7] stands for this setting: 30 mM lactulose, read-out: pka-with 30 mM lactulose.
The mark [8] stands for this setting: aqueous buffer solutions in a 96-well plate, no lactulose, read-out: pKa-absence of lactulose.

Where two headings read alike, the source gives them in different places.

For `OB(O)c1cc(C[n+]2ccc(-c3ccc4ccccc4c3)cc2)cc(C[n+]2ccc(-c3ccc4ccccc4c3)cc2)c1` [Compound 1], in data set [1], the “TSPP Ks (static quenching constant)” value is listed as 5.24 ± 0.3 × 10^4 M^−1 and the “TSPP V (dynamic quenching constant)” value came out at 112 ± 46 M⁻¹. Further, the molar extinction coefficient in data set [2] is 11700 M⁻¹ cm⁻¹. For the same compound, in data set [3], the “change in fluorescence recovery, HPTS combination” value is not below 1.5 fold. Moreover, in data set [4], the “HPTS Ks (static quenching constant)” value was 1.01 ± 0.5 × 10^5 M^−1 and the “HPTS V (dynamic quenching constant)” value was found to be 63 ± 15 M⁻¹. The emission maxima in data set [5] was determined as 504 nm.

As for `OB(O)c1ccccc1C[n+]1ccc(-c2ccc3cc(-c4cc[n+](Cc5ccccc5B(O)O)cc4)ccc3c2)cc1` [Compound 3], in data set [1], the “TSPP Ks (static quenching constant)” value was 5.01 ± 0.7 × 10^4 M^−1 and the “TSPP V (dynamic quenching constant)” value is 68 ± 13 M⁻¹. Moreover, the molar extinction coefficient in data set [2] came to 27700 M⁻¹ cm⁻¹. In addition, in data set [4], the “HPTS Ks (static quenching constant)” value was 9.29 ± 0.4 × 10^4 M^−1 and the “HPTS V (dynamic quenching constant)” value was 109 ± 18 M⁻¹. For the same compound, the pKa in data set [6] (setting [7]) worked out at 5.8 ± 0.1. Further, in data set [6] (setting [8]), the pKa stood at 7.8 ± 0.03. In data set [5], the “fluorescence intensity change on initial introduction of lactulose” value is reported as “drastic intensity change” and the emission maxima is given as 440 nm.

On to `OB(O)c1ccccc1C[n+]1ccc(-c2ccc3ccccc3c2)cc1.[Br-]` [Compound 2, 1-(2-boronobenzyl)-4-(naphthalen-2-yl) pyridinium bromide], for which the molar extinction coefficient in data set [2] was 11000 M⁻¹ cm⁻¹. For the same compound, the values for the pKa in data set [6] (setting [7]) and in data set [6] (setting [8]) were 5.5 ± 0.06 and 7.7 ± 0.08, respectively. The compound further returned an emission maxima in data set [5] of 490 nm.

On to `OB(O)c1ccccc1C[n+]1ccc(-c2ccc3ccc(-c4cc[n+](Cc5ccccc5B(O)O)cc4)cc3c2)cc1` [Compound 4], for which, in data set [1], the “TSPP Ks (static quenching constant)” value is reported as 1.45 ± 0.1 × 10^4 M^−1 and the “TSPP V (dynamic quenching constant)” value came to 80 ± 10 M⁻¹. In data set [2], the molar extinction coefficient turned out to be 50100 M⁻¹ cm⁻¹. Also, in data set [4], the “HPTS Ks (static quenching constant)” value is listed as 1.00 ± 0.9 × 10^5 M^−1 and the “HPTS V (dynamic quenching constant)” value amounted to 100 ± 14 M⁻¹. The pKa in data set [6] (setting [7]) is 5.7 ± 0.05. Also, the pKa in data set [6] (setting [8]) was 8.2 ± 0.02. In addition, in data set [5], the “fluorescence intensity change on initial introduction of lactulose” value was “drastic intensity change” and the emission maxima was 440 nm.
